From patent publication US20100279957A1, “PREDICTING RESPONSIVENESS TO CANCER THERAPEUTICS” (priority 2007, published 2010)
Where two headings read alike, the source gives them in different places.

How the values were obtained:
[1] = tested on: breast cancer, advanced ovarian cancer; test: Clinical response to single agent chemotherapy in patients (breast neoadjuvant docetaxel; ovarian salvage docetaxel, topotecan, taxol; adriamycin treated patients); assay type: in vivo, human; details: Ovarian tumor data set; responders/patients
Source text: The development of a gene expression signature capable of predicting in vitro docetaxel sensitivity provides a tool that might be useful in predicting response to the drug in patients. We made use of published studies with clinical and genomic data that linked gene expression data with clinical response to docetaxel in a breast cancer neoadjuvant study^50 (FIG. 1D) to test the capacity of the in vitro docetaxel sensitivity predictor to accurately identify those patients that responded to docetaxel. […] We extended this further by predicting the response to docetaxel as salvage therapy for ovarian cancer.
Given the ability of the in vitro developed gene expression profiles to predict response to docetaxel in the clinical samples, we extended this approach to test the ability of additional signatures to predict response to commonly used salvage therapies for ovarian cancer and an independent data set of samples from adriamycin treated patients (Evans W, GSE650, GSE651). […] In each case, the positive and negative predictive values confirm the validity and clinical utility of the approach (Table 16).
Full details of the methods used for RNA extraction and development of gene expression signatures representing deregulation of oncogenic pathways in the tumor samples were recently described.^36 Response to therapy was evaluated using standard criteria for patients with measurable disease, based upon WHO guidelines.^28

[2] = tested on: breast cancer, advanced ovarian cancer; details: responders/patients, cited from earlier work
NCI-60 cell line panel = tested on: NCI-60 cell line panel; set-up: key: Sensitive; Resistant; details: cited from earlier work

## CC(=O)O[C@H]1C(=O)[C@@]2(C)[C@H]([C@H](OC(=O)c3ccccc3)[C@]3(O)C[C@H](OC(=O)[C@H](O)[C@@H](NC(=O)c4ccccc4)c4ccccc4)C(C)=C1C3(C)C)[C@]1(OC(C)=O)CO[C@@H]1C[C@@H]2O [taxol, paclitaxel]
[1]
  Actual Overall Response: 20/35 (57.1%)

## CC[C@@]1(O)C(=O)OCc2c1cc1n(c2=O)Cc2cc3c(CN(C)C)c(O)ccc3nc2-1 [topotecan]
[1]
  Actual Overall Response: 20/48 (41.6%)

## COc1cccc2c1C(=O)c1c(O)c3c(c(O)c1C2=O)C[C@@](O)(C(=O)CO)C[C@@H]3O[C@H]1C[C@H](N)[C@H](O)[C@H](C)O1 [adriamycin]
[2]; Evans et al. patient data set
  Actual Overall Response: 24/122 (19.6%)

## CC(=O)O[C@@]12CO[C@@H]1C[C@H](O)[C@@]1(C)C(=O)[C@H](O)C3=C(C)[C@@H](OC(=O)[C@H](O)[C@@H](NC(=O)OC(C)(C)C)c4ccccc4)C[C@@](O)([C@@H](OC(=O)c4ccccc4)[C@H]21)C3(C)C [docetaxel]
[2]; Breast Tumor Data, neoadjuvant (Chang et al.)
  Actual Overall Response: 13/24 (54.1%)
[1]
  Actual Overall Response: 7/14 (50%)

## O=c1[nH]cc(F)c(=O)[nH]1 [5-FU, 5-fluorouracil]
NCI-60 cell line panel; A498, Renal
  Resistant or Sensitive (Res or Sen): Sen
NCI-60 cell line panel; COLO 205, Colon
  Resistant or Sensitive (Res or Sen): Sen
NCI-60 cell line panel; EKVX, Non-Small Cell Lung
  Resistant or Sensitive (Res or Sen): Res
NCI-60 cell line panel; HCT-116, Colon
  Resistant or Sensitive (Res or Sen): Sen
NCI-60 cell line panel; LOX IMVI, Melanoma
  Resistant or Sensitive (Res or Sen): Sen
NCI-60 cell line panel; M14, Melanoma
  Resistant or Sensitive (Res or Sen): Res
NCI-60 cell line panel; MCF7, Breast
  Resistant or Sensitive (Res or Sen): Sen
NCI-60 cell line panel; MDA-MB-435, Melanoma
  Resistant or Sensitive (Res or Sen): Res
NCI-60 cell line panel; NCI-H460, Non-Small Cell Lung
  Resistant or Sensitive (Res or Sen): Sen
NCI-60 cell line panel; NCI/ADR-RES, Ovarian
  Resistant or Sensitive (Res or Sen): Res
NCI-60 cell line panel; OVCAR-8, Ovarian
  Resistant or Sensitive (Res or Sen): Res
NCI-60 cell line panel; SK-MEL-5, Melanoma
  Resistant or Sensitive (Res or Sen): Sen
NCI-60 cell line panel; SN12C, Renal
  Resistant or Sensitive (Res or Sen): Res
NCI-60 cell line panel; SW-620, Colon
  Resistant or Sensitive (Res or Sen): Res
NCI-60 cell line panel; UO-31, Renal
  Resistant or Sensitive (Res or Sen): Sen
